{"source": "patent US6866861B1", "about": "“Method and composition for enhancing milk component concentrations” (Land O'Lakes, Inc., priority 1999, dated 2005)", "key": {"cows [1]": {"test_system": "cows", "assay": "Abomasal infusion of sorbitol in cows, milk component concentrations (Example 2)", "format": "in vivo, cow", "settings": "for Ash / Fat / Lactose / Total Solids / True Protein: 100 g/cow/day abomasal, average of 3 cows", "description": "To determine the weight percent total solids, wet basis, in a sample, the actual weight of total solids is determined by analyzing the sample in accordance with Method #925.23 (33.2.09) of Official Methods of Analysis, Association of Official Analytical Chemists (AOAC) (16th Ed., 1995). The weight percent total solids, wet basis, is then calculated by dividing the actual weight of total solids by the actual weight of the sample. The weight percent of true protein, wet basis, for a particular sample is calculated after first determining the wet basis weight percent of total Kjeldahl nitrogen and the wet basis weight percent of non-protein nitrogen in the sample. The wet basis weight percent of total Kjeldahl nitrogen in the sample is determined using the method referenced above. The wet basis weight percent of non-protein nitrogen (NPN) in the sample is determined in accordance with Method #991.21 (33.2.12) of Official Methods of Analysis, Association of Official Analytical Chemists (AOAC) (16th Ed., 1995). The weight percent of true protein, wet basis, in the sample is then determined by subtracting the wet basis weight percent of non-protein nitrogen in the sample from the wet basis weight percent of total Kjeldahl nitrogen in the sample. To determine the weight percent lactose, wet basis, in a liquid sample, the weight of the liquid sample is first determined. The actual weight of lactose in the liquid sample may then be determined using analysis kit number 176-303, that is available from Boehringer-Mannheim of Indianapolis, Ind. in accordance with the procedural instructions included with analysis kit number 176-303. The weight percent lactose, wet basis, in the liquid sample is then calculated by dividing the actual weight of lactose in the liquid sample by the actual weight of the liquid sample. To determine the weight percent fat, wet basis, in a sample, the actual weight of fat in the sample is determined in accordance with Method #974.09 (33.7.18) of Official Methods of Analysis, Association of Official Analytical Chemists (AOAC) (16th Ed., 1995). The weight percent fat, wet basis, is then calculated by dividing the actual weight of fat in the sample by the actual weight of the sample. In this example, sorbitol was abomasally infused into three different cows at a rate of 100 grams of sorbitol per cow per day during a 14 day test period. The sorbitol rations were mixed with water to facilitate infusion. The rations provided to the cows during the period extending from day 0, prior to abomasal infusion of sorbitol, through day 14 of the test period were the same. The only difference in feeding of the cows between day 0 and days 1-14 of the test period were that during days 1-14 the cows were abomasally infused with the dosage of 100 grams of sorbitol per cow per day. Milk from the three cows was collected and analyzed prior to infusion (on day 0) and also was collected and analyzed on the third, seventh and fourteenth day of the test period. The results presented in Table 2 below for each milk component for each particular day are averages for the milk collected from the three different cows. The net change for the different milk components presented in Table 2 was calculated by averaging the results of days 3, 7 and 14 for a particular milk component and subtracting the results presented for day 0 for the particular milk component."}, "cows [2]": {"test_system": "cows", "assay": "Cyclic oral feeding of glycerol to cows, milk component concentrations (Example 8)", "format": "in vivo, cow", "settings": "for Fat in Milk / Lactose in Milk / Total Solids in Milk / True Protein in Milk: oral", "description": "To determine the weight percent total solids, wet basis, in a sample, the actual weight of total solids is determined by analyzing the sample in accordance with Method #925.23 (33.2.09) of Official Methods of Analysis, Association of Official Analytical Chemists (AOAC) (16th Ed., 1995). The weight percent total solids, wet basis, is then calculated by dividing the actual weight of total solids by the actual weight of the sample. The weight percent of true protein, wet basis, for a particular sample is calculated after first determining the wet basis weight percent of total Kjeldahl nitrogen and the wet basis weight percent of non-protein nitrogen in the sample. The wet basis weight percent of total Kjeldahl nitrogen in the sample is determined using the method referenced above. The wet basis weight percent of non-protein nitrogen (NPN) in the sample is determined in accordance with Method #991.21 (33.2.12) of Official Methods of Analysis, Association of Official Analytical Chemists (AOAC) (16th Ed., 1995). The weight percent of true protein, wet basis, in the sample is then determined by subtracting the wet basis weight percent of non-protein nitrogen in the sample from the wet basis weight percent of total Kjeldahl nitrogen in the sample. To determine the weight percent lactose, wet basis, in a liquid sample, the weight of the liquid sample is first determined. The actual weight of lactose in the liquid sample may then be determined using analysis kit number 176-303, that is available from Boehringer-Mannheim of Indianapolis, Ind. in accordance with the procedural instructions included with analysis kit number 176-303. The weight percent lactose, wet basis, in the liquid sample is then calculated by dividing the actual weight of lactose in the liquid sample by the actual weight of the liquid sample. To determine the weight percent fat, wet basis, in a sample, the actual weight of fat in the sample is determined in accordance with Method #974.09 (33.7.18) of Official Methods of Analysis, Association of Official Analytical Chemists (AOAC) (16th Ed., 1995). The weight percent fat, wet basis, is then calculated by dividing the actual weight of fat in the sample by the actual weight of the sample. In Example 8, glycerol was periodically fed orally to several test cows. Period 1 lasted from week 1-3, Period 2 lasted from week 4-6, and Period 3 lasted from week 7-9, with week 0 being the start of the test period in which no glycerol was provided. The results presented in Table 7 below are averages for particular components for milk produced from each of the test animals."}, "[3]": {"settings": "milk, average of days 3, 7, 14 minus day 0"}, "[4]": {"settings": "Period 1 (Fed Glycerol), weeks 1-3"}, "[5]": {"settings": "Period 3 (Fed Glycerol), weeks 7-9"}}, "data": [{"smiles": "OC[C@@H](O)[C@@H](O)[C@H](O)[C@@H](O)CO", "note": "[sorbitol]", "values": [{"measurement": "weight percent of fat, true protein, and total solids in the milk (conclusion in words)", "setting": "cows [1]; abomasal infusion, 14 day test period", "result": "net increase"}, {"measurement": "Ash", "setting": "cows [1]; milk, Day 3", "result": 0.73, "unit": "Wt. %"}, {"measurement": "Fat", "setting": "cows [1]; milk, Day 3", "result": 4.59, "unit": "Wt %"}, {"measurement": "Lactose", "setting": "cows [1]; milk, Day 3", "result": 4.62, "unit": "Wt. %"}, {"measurement": "Total Solids", "setting": "cows [1]; milk, Day 3", "result": 13.00, "unit": "Wt. %"}, {"measurement": "True Protein", "setting": "cows [1]; milk, Day 3", "result": 3.06, "unit": "Wt. %"}, {"measurement": "Ash", "setting": "cows [1]; milk, Day 7", "result": 0.73, "unit": "Wt. %"}, {"measurement": "Fat", "setting": "cows [1]; milk, Day 7", "result": 3.78, "unit": "Wt %"}, {"measurement": "Lactose", "setting": "cows [1]; milk, Day 7", "result": 4.87, "unit": "Wt. %"}, {"measurement": "Total Solids", "setting": "cows [1]; milk, Day 7", "result": 12.40, "unit": "Wt. %"}, {"measurement": "True Protein", "setting": "cows [1]; milk, Day 7", "result": 3.01, "unit": "Wt. %"}, {"measurement": "Ash", "setting": "cows [1]; milk, Day 14", "result": 0.71, "unit": "Wt. %"}, {"measurement": "Fat", "setting": "cows [1]; milk, Day 14", "result": 4.33, "unit": "Wt %"}, {"measurement": "Lactose", "setting": "cows [1]; milk, Day 14", "result": 4.75, "unit": "Wt. %"}, {"measurement": "Total Solids", "setting": "cows [1]; milk, Day 14", "result": 12.88, "unit": "Wt. %"}, {"measurement": "True Protein", "setting": "cows [1]; milk, Day 14", "result": 3.09, "unit": "Wt. %"}, {"measurement": "Ash, Net Change", "setting": "cows [1]; [3]", "result": "no net change"}, {"measurement": "Fat, Net Change", "setting": "cows [1]; [3]", "result": "+0.67 Wt %"}, {"measurement": "Lactose, Net Change", "setting": "cows [1]; [3]", "result": "−0.13", "unit": "Wt. %"}, {"measurement": "Total Solids, Net Change", "setting": "cows [1]; [3]", "result": "+0.63 Wt. %"}, {"measurement": "True Protein, Net Change", "setting": "cows [1]; [3]", "result": "+0.08 Wt. %"}]}, {"smiles": "OCC(O)CO", "note": "[glycerol]", "values": [{"measurement": "fat, lactose, or total solids content of the milk (conclusion in words)", "setting": "cows [2]; cyclic oral feeding", "result": "no increase or essentially no increase"}, {"measurement": "Fat in Milk", "setting": "cows [2]; [4]", "result": 3.06, "unit": "wt %"}, {"measurement": "Lactose in Milk", "setting": "cows [2]; [4]", "result": 4.97, "unit": "wt %"}, {"measurement": "Total Solids in Milk", "setting": "cows [2]; [4]", "result": 11.38, "unit": "wt %"}, {"measurement": "True Protein in Milk", "setting": "cows [2]; [4]", "result": 2.64, "unit": "wt %"}, {"measurement": "Fat in Milk", "setting": "cows [2]; [5]", "result": 3.22, "unit": "wt %"}, {"measurement": "Lactose in Milk", "setting": "cows [2]; [5]", "result": 4.80, "unit": "wt %"}, {"measurement": "Total Solids in Milk", "setting": "cows [2]; [5]", "result": 11.43, "unit": "wt %"}, {"measurement": "True Protein in Milk", "setting": "cows [2]; [5]", "result": 2.69, "unit": "wt %"}]}]}
